Assay results: the RepoRT retention time repository (doi:10.1093/pcp/pcn183)
Structures can show the parent of a compound that is named as a salt.

Test: RP, Waters ACQUITY UPLC BEH C18, 38 °C, 0.24 mL/min; A: water + 0.1% formic acid, pH 3; B: acetonitrile + 0.1% formic acid, pH 3; gradient (min/%B) 0/0 0.25/0 0.4/9 0.8/17 1.9/100 2.1/100 2.11/0 3/0
Details: stereoisomer not certain

Compound	LC retention time [min]
Cc1cnc(=O)[nH]c1N [5-Methylcytosine hydrochloride]	0.25
NCCc1ccc(O)cc1 [Tyramine]	0.67
CC(C)CC(N)C(=O)O [L-Leucine, (Cell Culture Reagent, Crystalline)]	0.53
NC(CO)CC(=O)O [L-beta-homoserine [(R)-3-Amino-4-hydroxy-butyric acid (+)]]	0.16
CCCC[C@H](N)C(=O)O [L-Norleucine]	0.57
NC(CCSCC(N)C(=O)O)C(=O)O (stereo not drawn) [L(+)-Cystathionine]	0.16
CN=C(N)N [Methylguanidine hydrochloride]	0.18
O=C(O)CCCCCCCCC(=O)O [Sebacic acid]	1.58
NCCCNCCCCNCCCN [Spermine]	0.14
NC(CCCC(N)C(=O)O)C(=O)O (racemic) [DL-alpha,epsilon-Diaminopimelic acid]	0.15
CC(N)(CO)C(=O)O (racemic) [alpha-Methyl-DL-serine]	0.17
O=C(O)CCC(=O)O [Succinic acid]	0.49
NCCS(=O)O [Hypotaurine]	0.16
CSC[C@H](N)C(=O)O [S-Methyl-L-cysteine]	0.2
CCCC(O)C(=O)O (racemic) [DL-2-Hydroxyvaleric acid sodium salt hydrate]	1.14
Cc1ncc(C[n+]2csc(CCO)c2C)c(N)n1 [Thiamine hydrochloride]	0.19
O=S(=O)(O)CCN1CCN(CCS(=O)(=O)O)CC1 [PIPES]	0.16
CC(C)(CO)C(O)C(=O)NCCC(=O)O (stereo not drawn) [Calcium (+)-pantothenate]	1.11
NCCCCNCCCN [Spermidine]	0.14
OC[C@@H](O)[C@H](O)CO (racemic) [DL-Threitol]	0.17
Nc1ccccc1 [Aniline]	0.42

Compound	LC retention time [min]
CNCC(O)c1cccc(O)c1 [(R)-(-)-Phenylephrine hydrochloride]	0.59
C[C@@H](N)P(=O)(O)O [(S)-(+)-1-Aminoethylphosphonic acid]	0.16
C[N+](C)(C)CC=O [Betaine aldehyde chloride]	0.16
CC(C)[N+](=O)[O-] [2-nitropropane]	0.3
CC(C)C(O)(CC(=O)O)C(=O)O (stereo not drawn) [2-Isopropylmalic acid]	1.21
NCCc1c[nH]c2ccc(O)cc12 [Serotonin hydrochloride]	1.08
Nc1ccc(O)cc1 [4-Aminophenol hydrochloride]	0.2
CC(=O)OCC=C(C)CCC=C(C)CCC=C(C)C (mixture of isomers) [(cis,trans)-Farnesyl acetate]	2
CC(C)[C@@H](O)C(=O)O [D-alpha-Hydroxyisovaleric acid]	1.14
NCCCC(=O)O [gamma-Amino-n-butyric acid]	0.17
CN(C)C=O [N,N-Dimethylformamide(DMF)]	0.51
OCC(O)C(O)C(O)CO (stereo not drawn)	0.17
COc1cc(-c2[o+]c3cc(O)cc(O)c3cc2O)cc(OC)c1O [Malvidin Chloride]	2.15
NC(N)=NCC(=O)O [Glycocyamine]	0.18
NCC(CC(=O)O)c1ccc(Cl)cc1 (racemic) [(+-)-Baclofen]	1.24
CC(=O)NC(CO)C(=O)O (racemic) [N-acetyl-DL-serine]	0.24
O=C1CCNC(=O)N1 [5,6-Dihydrouracil]	0.2
CS(=O)(=O)CCC(N)C(=O)O [L-Methionine sulfone]	0.18
NC12CC3CC(CC(C3)C1)C2 [Amantadine hydrochloride]	1.28
C[n+]1cccc(C(=O)[O-])c1 [Trigonelline hydrochloride]	0.19

More lines, now with the values ahead:

LC retention time [min]	Compound
1.57	O=c1c(-c2ccc(O)cc2)coc2cc(O)ccc12 [Daidzein]
0.4	O=c1ccn(C2CC(O)C(COP(=O)(O)O)O2)c(=O)[nH]1 (stereo not drawn) [2'-Deoxyuridine-5'-monophosphate disodium salt]
1.64	O=C(O)/C=C/c1ccccc1 [trans-Cinnamic acid]
1.45	COc1ccc(C2CC(=O)c3c(O)cc(OC4OC(COC5OC(C)C(O)C(O)C5O)C(O)C(O)C4O)cc3O2)cc1O (stereo not drawn) [Hesperidin]
1.15	CC1OC(OCC2OC(Oc3cc4c(O)cc(O)cc4[o+]c3-c3cc(O)c(O)c(O)c3)C(O)C(O)C2O)C(O)C(O)C1O (stereo not drawn)
1.11	CC(CO)CCNc1ncnc2nc[nH]c12 (racemic) [DL-Dihydrozeatin]
1.25	O=C(O)c1cc(O)ccc1O [2,5-dihydroxy benzoic acid]
0.15	N[C@H]1C(O)O[C@H](CO)[C@@H](O)[C@@H]1O (stereo partly drawn) [D-(+)-Glucosamine hydrochloride]
0.19	OCC1OC(OCC2OC(O)C(O)C(O)C2O)C(O)C(O)C1O (stereo not drawn)
0.41	O=C1CC[C@@H](C(=O)O)N1 [L-Pyroglutamic acid]
0.21	CC1OC(O)C(O)C(O)C1O (stereo not drawn)
1.41	O=C1CC(c2ccc(O)c(O)c2)Oc2cc(OC3OC(CO)C(O)C(O)C3O)cc(O)c21 (stereo not drawn) [eriodictyol-7-O-glucoside]
0.48	O=c1[nH]c(=O)c2ncn(C3OC(COP(=O)(O)O)C(O)C3O)c2[nH]1 (stereo not drawn)
1.25	OCC1OC(Oc2cc3c(O)cc(O)cc3[o+]c2-c2ccc(O)cc2)C(O)C(O)C1O (stereo not drawn) [Callistephin Chloride]
1.27	O=C(O)Cc1c[nH]c2ccc(O)cc12 [5-Hydroxyindole-3-acetate (5-HIAA)]
1.44	COc1cc(C=CC(=O)O)cc(OC)c1O [Sinapic acid]
0.23	O=C(O)CC(O)C(=O)O [L-(-)-Malic acid]
1.13	Nc1ccc(C(=O)O)cc1 [4-Aminobenzoic acid]
1.32	O=c1c(O[C@@H]2O[C@H](CO)[C@@H](O)[C@H](O)[C@H]2O)c(-c2ccc(O[C@@H]3O[C@H](CO)[C@@H](O)[C@H](O)[C@H]3O)c(O)c2)oc2cc(O)cc(O)c12 [Quercetin-3,4'-O-di-beta-glucopyranoside]
0.67	Nc1ccn(C2OC3COP(=O)(O)OC3C2O)c(=O)n1 (stereo not drawn) [Cytidine-3',5'-cyclicmonophosphate]
1.15	CC(=O)Nc1ccc(O)cc1 [Acetaminophen]
1.46	CC(=O)OCC1OC(Oc2c(-c3ccc(O)c(O)c3)oc3cc(O)cc(O)c3c2=O)C(O)C(O)C1O (stereo not drawn) [Quercetin-3-O-glucose-6''-acetate]
1.18	O=C(O)C(O)Cc1ccc(O)cc1 (racemic) [DL-p-Hydroxyphenyllactic acid]
0.21	O=c1ccn(C2OC(COP(=O)(O)OP(=O)(O)OC3OCC(O)C(O)C3O)C(O)C2O)c(=O)[nH]1 (stereo not drawn) [UDP-xylose]

LC retention time [min]	Compound
0.16	OCC1OC(OC2C(O)C(O)C(O)C(O)C2O)C(O)C(O)C1O (stereo not drawn) [Galactinol Dihydrate]
1.1	Nc1ccccc1C(=O)CC(N)C(=O)O [L-Kynurenine]
1.52	COc1ccc(-c2coc3cc(OC4OC(CO)C(O)C(O)C4O)ccc3c2=O)cc1 (stereo not drawn) [Ononin]
1.19	Cc1cc2nc3c(=O)[nH]c(=O)nc-3n(CC(O)C(O)C(O)COP(=O)(O)O)c2cc1C (stereo not drawn)
0.4	N[C@@H](Cc1ccc(O)c(O)c1)C(=O)O [3,4-Dihydroxy-L-phenylalanine]
1.7	COc1cc(-c2oc3cc(O)cc(O)c3c(=O)c2O)ccc1O [Isorhamnetin]
1	O=C(O)C(O)c1cccc(O)c1 (stereo not drawn) [3-Hydroxymandelic acid]
1.25	O=C(O)c1ccc(O)cc1 [4-Hydroxybenzoate]
0.68	O=c1cccc[nH]1 [2-Hydroxypyridine]
0.93	Nc1ccc(C(=O)NCC(=O)O)cc1 [4-Aminohippurate]
1.14	OCC1OC(Oc2cc3c(OC4OC(CO)C(O)C(O)C4O)cc(O)cc3[o+]c2-c2ccc(O)cc2)C(O)C(O)C1O (stereo not drawn) [Pelargonin chloride]
1.41	O=c1cc(-c2ccc(O)c(O)c2)oc2cc(OC3OC(CO)C(O)C(O)C3O)cc(O)c12 (stereo not drawn) [luteolin-7-O-glucoside]
0.68	CC(O)(CC(=O)O)CC(=O)O [3-Hydroxy-3-methylglutarate]
0.21	OCC1OC(OC2C(O)C(CO)OC2(CO)OC2OC(CO)C(O)C(O)C2O)C(O)C(O)C1O [D-(+)-Melezitose hydrate]
0.15	Cn1cncc1C[C@H](N)C(=O)O [3-Methyl-L-histidine]
0.18	CC(=O)N[C@@H]1C(O)O[C@H](CO)[C@@H](O)[C@@H]1O (stereo partly drawn) [N-acetyl-D-mannosamine]
1.45	COc1cc(-c2oc3cc(O)cc(O)c3c(=O)c2OC2OC(CO)C(O)C(O)C2O)cc(OC)c1O (stereo not drawn) [syringetin-3-O-glucoside]
0.2	N[C@@H](CSCC(=O)O)C(=O)O [S-Carboxymethyl-L-cysteine]
1.14	CSCC1OC(n2cnc3c(N)ncnc32)C(O)C1O (stereo not drawn) [5'-Deoxy-5'-Methylthioadenosine]
0.19	OCC1OC(OC2C(CO)OC(O)(CO)C2O)C(O)C(O)C1O (stereo not drawn)
0.17	OCC1OC(OC2C(CO)OC(O)C(O)C2O)C(O)C(O)C1O [D-(+)- Maltose monohydrate]
1.4	O=c1c(OC2OC(CO)C(O)C(O)C2O)c(-c2ccc(O)c(O)c2)oc2cc(O)cc(O)c12 (stereo not drawn) [Hyperoside]
1.51	O=Cc1c[nH]c2ccccc12 [Indole-3-carboxyaldehyde]
